Measured values reported in patent US11136351B2 (priority 2016, dated 2021).
Counter-ions that a name gives are not always drawn. Like-named read-outs stand apart in the source and are kept apart here.

Key:
mouse HVA Ca^2+ channel = assay type: cell-based; conditions: 50 μM
[1] = system: HVA calcium channels in rat DRG neurons; assay type: cell-based
human α9α10 nAChR = target: T1, human α9α10 nAChR (Homo sapiens, UniProt Q9GZZ6+Q9UGM1); assay type: cell-based; conditions: 1 μM
T1 construct: expressed in transfected cells; host or cells: Xenopus laevis oocytes

human α9α10 nAChRs = human α9α10 nAChRs (Homo sapiens, UniProt Q9GZZ6+Q9UGM1); conditions: cited from earlier work
rat α9α10 nAChRs = rat α9α10 nAChRs (Rattus norvegicus, UniProt P43144+Q9JLB5); conditions: cited from earlier work
α7 nAChRs = α7 nAChRs (Homo sapiens, UniProt P36544); conditions: cited from earlier work
Sequence of α7 nAChRs (P36544 23-502 limits assumed): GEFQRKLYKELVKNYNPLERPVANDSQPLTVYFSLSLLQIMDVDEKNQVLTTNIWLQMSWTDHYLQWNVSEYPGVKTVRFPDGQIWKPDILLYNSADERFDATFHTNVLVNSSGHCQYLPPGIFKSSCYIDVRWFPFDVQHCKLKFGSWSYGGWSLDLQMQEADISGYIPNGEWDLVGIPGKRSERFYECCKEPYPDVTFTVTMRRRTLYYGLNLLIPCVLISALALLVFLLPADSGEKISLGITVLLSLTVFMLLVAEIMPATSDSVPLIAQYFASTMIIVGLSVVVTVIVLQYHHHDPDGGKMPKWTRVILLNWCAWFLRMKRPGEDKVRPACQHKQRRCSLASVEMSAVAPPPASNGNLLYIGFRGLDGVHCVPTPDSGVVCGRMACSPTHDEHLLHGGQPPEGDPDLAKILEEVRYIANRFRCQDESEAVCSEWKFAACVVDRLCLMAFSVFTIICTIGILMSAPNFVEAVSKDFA

Sequence of human α9α10 nAChRs (Q9UGM1 26-479 limits assumed): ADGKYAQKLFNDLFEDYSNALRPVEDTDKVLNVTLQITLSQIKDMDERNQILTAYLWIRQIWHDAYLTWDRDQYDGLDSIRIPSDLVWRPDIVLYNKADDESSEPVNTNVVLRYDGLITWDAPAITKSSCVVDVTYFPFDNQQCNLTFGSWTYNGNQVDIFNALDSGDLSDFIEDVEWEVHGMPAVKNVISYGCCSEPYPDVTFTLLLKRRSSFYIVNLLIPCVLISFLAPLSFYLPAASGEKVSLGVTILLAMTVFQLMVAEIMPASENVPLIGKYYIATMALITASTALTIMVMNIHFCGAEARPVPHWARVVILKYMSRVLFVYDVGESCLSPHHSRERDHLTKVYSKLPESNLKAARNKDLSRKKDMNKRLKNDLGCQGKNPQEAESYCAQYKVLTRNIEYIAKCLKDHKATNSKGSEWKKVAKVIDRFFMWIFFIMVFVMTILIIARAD
Sequence of human α9α10 nAChRs (Q9GZZ6 25-450): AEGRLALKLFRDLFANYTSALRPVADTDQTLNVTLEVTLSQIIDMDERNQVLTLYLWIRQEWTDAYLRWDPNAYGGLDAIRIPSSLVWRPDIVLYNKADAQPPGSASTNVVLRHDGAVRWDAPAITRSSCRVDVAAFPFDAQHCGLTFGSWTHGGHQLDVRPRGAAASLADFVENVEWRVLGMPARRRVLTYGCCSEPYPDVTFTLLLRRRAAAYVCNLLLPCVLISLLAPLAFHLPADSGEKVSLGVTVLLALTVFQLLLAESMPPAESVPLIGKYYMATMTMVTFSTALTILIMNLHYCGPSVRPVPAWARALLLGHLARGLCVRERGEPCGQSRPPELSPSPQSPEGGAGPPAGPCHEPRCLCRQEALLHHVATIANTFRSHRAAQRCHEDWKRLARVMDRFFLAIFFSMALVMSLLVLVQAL
T1 sequence (Q9UGM1 26-479 limits assumed): as the sequence (Q9UGM1 26-479 limits assumed) above
T1 sequence (Q9GZZ6 25-450): as the sequence (Q9GZZ6 25-450) above
Sequence of rat α9α10 nAChRs (P43144 26-479 limits assumed): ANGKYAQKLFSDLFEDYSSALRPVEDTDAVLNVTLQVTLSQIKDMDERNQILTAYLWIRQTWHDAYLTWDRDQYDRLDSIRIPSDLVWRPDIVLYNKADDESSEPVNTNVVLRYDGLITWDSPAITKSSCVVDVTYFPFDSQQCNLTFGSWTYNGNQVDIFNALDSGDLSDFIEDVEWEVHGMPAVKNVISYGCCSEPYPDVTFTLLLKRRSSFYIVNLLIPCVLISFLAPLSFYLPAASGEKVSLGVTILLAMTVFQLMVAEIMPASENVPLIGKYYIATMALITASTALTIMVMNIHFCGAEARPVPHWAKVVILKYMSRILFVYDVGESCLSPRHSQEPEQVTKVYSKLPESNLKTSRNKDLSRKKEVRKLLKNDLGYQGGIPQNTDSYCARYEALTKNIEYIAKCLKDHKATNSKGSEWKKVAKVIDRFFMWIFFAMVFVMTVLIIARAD
Sequence of rat α9α10 nAChRs (Q9JLB5 25-447 limits assumed): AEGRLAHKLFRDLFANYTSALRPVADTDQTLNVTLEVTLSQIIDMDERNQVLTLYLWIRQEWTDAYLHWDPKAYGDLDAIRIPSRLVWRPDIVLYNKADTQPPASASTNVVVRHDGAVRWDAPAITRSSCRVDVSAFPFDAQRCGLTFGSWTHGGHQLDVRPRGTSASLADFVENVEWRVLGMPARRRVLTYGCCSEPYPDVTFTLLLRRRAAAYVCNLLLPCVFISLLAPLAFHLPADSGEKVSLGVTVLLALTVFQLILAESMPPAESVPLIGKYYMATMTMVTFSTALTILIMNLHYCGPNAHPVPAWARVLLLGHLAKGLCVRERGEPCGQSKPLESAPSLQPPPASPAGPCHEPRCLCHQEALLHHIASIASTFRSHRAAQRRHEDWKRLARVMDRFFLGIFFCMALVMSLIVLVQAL

Molecule | mouse HVA Ca^2+ channel I/Icontrol ± SEM (n) (mouse HVA Ca^2+ channel) | peak ICa inhibition (mouse HVA Ca^2+ channel) | reversibility of IBa inhibition [1] | IBa I/Icontrol ± SEM (n) ([1]; 50 μM) | fraction of total IBa suppressed ([1]; 50 μM) | rat HVA Ca^2+ channel I/Icontrol ± SEM (n) ([1]; 50 μM) | human α9α10 nAChR I/Icontrol ± SEM (n) (human α9α10 nAChR) | inhibition of HVA calcium currents by globular, ribbon and beads isomers [1] | rat HVA Ca^2+ channel I/Icontrol ± SEM (n) ([1]; 1 μM) | IC50 (human α9α10 nAChRs) | IC50 (rat α9α10 nAChRs) | IC50 (α7 nAChRs)
NC[C@H](CC(=O)O)c1ccc(Cl)cc1 [Baclofen, R-(+)-baclofen hydrochloride] | 0.60 ± 0.03 (11) | 41.5±2.7% | reversible on washout | 0.64 ± 0.018 (36) | ~35% | 0.64 ± 0.01 (33) | – | – | – | – | – | –
Vc1.1 | – | – | – | – | – | – | 0.57 ± 0.020 (17) | found to inhibit HVA calcium currents | 0.73 ± 0.03 (4) | 765 nM | 64 nM | ~7100 nM
